Reference: paper PMC10794144, “A novel antibiotic class targeting the lipopolysaccharide transporter” (Nature, 2024)
Marks after values point to notes of the source that are not given here.

Experiments:
S. aureus ATCC 29213 = experiment: organism not typed; settings: for RO7223280 MIC 100%: S. aureus ATCC 29213, read at 100%
Description: MIC determinations were performed using the broth microdilution method and in line with CLSI guidelines M07 and M100 (refs. [37],[38]). Bacterial inocula were prepared by diluting a 0.5 McFarland suspension in CAMHB or lysogeny broth (LB) specifically for A. baylyi isolates. […] MIC values of all of the tested antibiotics were read as the lowest compound concentration inhibiting bacterial growth by naked eye or beyond which the OD600 ceased to decrease.

panel of 50 off-targets = experiment: Off-target activity screening, number of hits in panel of 50; type: binding; settings: > 30% inhibition at 10 μM
CYP2D6 = CYP2D6 (Homo sapiens, UniProt P10635); experiment: CYP inhibition; type: in vitro ADME
GSH adduct = type: in vitro ADME
[1] = Rat plasma precipitation assay; settings: Wistar rat heparin plasma 1:1 with compound in saline/PBS; absorbance difference OD362 ≥ 0.05; n = 1
Description: Whole blood was obtained from WISTAR rats and collected in 1.2 ml heparin tubes for the preparation of heparin plasma. The tubes were then centrifuged for 5 min at 5,200g at room temperature to isolate the plasma supernatant. Test compounds were received as powder and solubilized at various concentrations in 0.9% aqueous sodium chloride solution and adjusted for pH with phosphate-buffered saline (PBS). The assay was conducted in 384-well plates. Rat plasma (10 µl) was added to 10 µl of the various compound solutions. A total of 10 µl of vehicle (0.9% aqueous sodium chloride solution, PBS) added to the plasma was used as a negative control. The absorption was measured at 362 nm. Raw data were obtained as absorbance data. The difference between the absorbance of the sample and the mean absorbance of the vehicle was calculated. The minimum effect concentration was defined as the lowest concentration giving an absorbance difference of OD362 ≥ 0.05.

Abl kinase = molecular target: T1, Abl kinase (Homo sapiens, UniProt P00519); experiment: Off-target screening (CEREP); type: biochemical; settings: read-out: percent inhibition
T1 construct: purchased Eurofins CEREP SA
Description: (§1) Supplementary Table 1 │ Off-target activity screening f or MCP compou nds […]
(§2) The assays given in the table above were conducted at Eurofins CEREP S A (Celle-Lévescault, France) and were run as single point measurements in duplicates in the presence of 10 µ M of the test compound and reported as percent inhibition of the radioligand signal or control enzymatic activity. n.d., not

Acetylcholinesterase = molecular target: T2, Acetylcholinesterase (Homo sapiens, UniProt P22303); experiment: Off-target screening (CEREP); type: biochemical; settings: read-out: percent inhibition
T2 construct: purchased Eurofins CEREP SA
Description: as §1, §2

[2] = molecular target: T3, Angiotensin converting enzyme (Homo sapiens, UniProt P12821); experiment: Off-target screening (CEREP); type: biochemical; settings: read-out: percent inhibition
T3 construct: purchased Eurofins CEREP SA
Description: as §1, §2

CDK2 = molecular target: T4, CDK2 (Homo sapiens, UniProt P24941); experiment: Off-target screening (CEREP); type: biochemical; settings: read-out: percent inhibition
T4 construct: purchased Eurofins CEREP SA
Description: as §1, §2

Cyclooxygenase 2 = molecular target: T5, Cyclooxygenase 2 (Homo sapiens, UniProt P35354); experiment: Off-target screening (CEREP); type: biochemical; settings: read-out: percent inhibition
T5 construct: purchased Eurofins CEREP SA
T5 sequence (P35354 18-604): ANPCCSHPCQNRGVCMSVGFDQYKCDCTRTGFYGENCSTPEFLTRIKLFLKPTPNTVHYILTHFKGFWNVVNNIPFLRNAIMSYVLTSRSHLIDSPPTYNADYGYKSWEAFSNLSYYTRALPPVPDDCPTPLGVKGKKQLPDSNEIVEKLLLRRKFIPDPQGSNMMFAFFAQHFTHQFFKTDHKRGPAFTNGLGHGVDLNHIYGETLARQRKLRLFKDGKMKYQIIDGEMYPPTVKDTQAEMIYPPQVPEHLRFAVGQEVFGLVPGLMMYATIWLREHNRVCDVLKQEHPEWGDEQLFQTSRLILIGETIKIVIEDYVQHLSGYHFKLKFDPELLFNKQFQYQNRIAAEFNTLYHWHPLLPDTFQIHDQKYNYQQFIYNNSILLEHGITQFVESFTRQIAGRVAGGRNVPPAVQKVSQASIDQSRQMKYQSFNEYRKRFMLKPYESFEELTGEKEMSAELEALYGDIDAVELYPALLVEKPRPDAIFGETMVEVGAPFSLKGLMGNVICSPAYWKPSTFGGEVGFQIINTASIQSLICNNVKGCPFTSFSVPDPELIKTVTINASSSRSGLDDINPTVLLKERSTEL
Description: as §1, §2

HIV-1 protease = experiment: Off-target screening (CEREP); type: biochemical; settings: 10 µM, duplicates
Description: as §1, §2

Matrix metalloprotease-9 = molecular target: T6, Matrix metalloprotease-9 (Homo sapiens, UniProt P14780); experiment: Off-target screening (CEREP); type: biochemical; settings: read-out: percent inhibition
T6 construct: purchased Eurofins CEREP SA
Description: as §1, §2

Monoamine oxidase-A = molecular target: T7, Monoamine oxidase-A (Homo sapiens, UniProt P21397); experiment: Off-target screening (CEREP); type: biochemical; settings: read-out: percent inhibition
T7 construct: purchased Eurofins CEREP SA
T7 sequence (P21397 1-527): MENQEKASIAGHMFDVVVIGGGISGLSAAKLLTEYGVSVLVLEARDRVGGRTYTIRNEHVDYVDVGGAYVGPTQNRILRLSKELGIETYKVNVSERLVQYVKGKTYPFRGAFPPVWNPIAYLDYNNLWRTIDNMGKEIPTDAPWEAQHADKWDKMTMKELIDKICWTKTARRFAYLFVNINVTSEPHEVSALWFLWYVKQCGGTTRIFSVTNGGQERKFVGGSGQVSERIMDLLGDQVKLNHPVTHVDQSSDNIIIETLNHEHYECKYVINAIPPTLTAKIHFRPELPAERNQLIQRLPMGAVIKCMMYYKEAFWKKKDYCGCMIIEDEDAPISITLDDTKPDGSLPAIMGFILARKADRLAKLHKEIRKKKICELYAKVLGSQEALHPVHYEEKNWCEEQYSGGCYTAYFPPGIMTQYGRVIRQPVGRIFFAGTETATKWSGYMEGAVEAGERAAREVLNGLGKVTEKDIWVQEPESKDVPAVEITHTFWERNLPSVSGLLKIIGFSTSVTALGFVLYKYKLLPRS
Description: as §1, §2

Phosphodiesterase 4D2 = molecular target: T8, Phosphodiesterase 4D2 (Homo sapiens, UniProt Q08499); experiment: Off-target screening (CEREP); type: biochemical; settings: read-out: percent inhibition
T8 construct: purchased Eurofins CEREP SA
Description: as §1, §2

[3] = test system: GSK-3A (second line so named); experiment: Off-target screening (CEREP); type: biochemical, human; settings: 10 µM, duplicates
Description: as §1, §2

C. albicans ATCC 90028 = experiment: microbe, parasite or virus in culture; settings: Candida albicans, ATCC90028

Chain of CYP2D6 (P10635 whole entry): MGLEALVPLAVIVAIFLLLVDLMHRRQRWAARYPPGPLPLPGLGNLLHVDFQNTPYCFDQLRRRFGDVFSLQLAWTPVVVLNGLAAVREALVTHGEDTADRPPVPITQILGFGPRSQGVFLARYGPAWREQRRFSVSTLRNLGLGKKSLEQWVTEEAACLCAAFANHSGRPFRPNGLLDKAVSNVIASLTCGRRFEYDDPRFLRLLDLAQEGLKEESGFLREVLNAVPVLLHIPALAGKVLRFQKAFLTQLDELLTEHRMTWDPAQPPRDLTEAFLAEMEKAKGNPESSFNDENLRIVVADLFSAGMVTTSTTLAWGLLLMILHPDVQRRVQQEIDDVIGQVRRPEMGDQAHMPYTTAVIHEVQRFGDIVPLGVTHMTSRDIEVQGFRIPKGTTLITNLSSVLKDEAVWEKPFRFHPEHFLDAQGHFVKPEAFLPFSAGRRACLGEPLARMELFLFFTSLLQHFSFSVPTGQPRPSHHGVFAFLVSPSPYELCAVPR
T2 sequence (P22303 32-614): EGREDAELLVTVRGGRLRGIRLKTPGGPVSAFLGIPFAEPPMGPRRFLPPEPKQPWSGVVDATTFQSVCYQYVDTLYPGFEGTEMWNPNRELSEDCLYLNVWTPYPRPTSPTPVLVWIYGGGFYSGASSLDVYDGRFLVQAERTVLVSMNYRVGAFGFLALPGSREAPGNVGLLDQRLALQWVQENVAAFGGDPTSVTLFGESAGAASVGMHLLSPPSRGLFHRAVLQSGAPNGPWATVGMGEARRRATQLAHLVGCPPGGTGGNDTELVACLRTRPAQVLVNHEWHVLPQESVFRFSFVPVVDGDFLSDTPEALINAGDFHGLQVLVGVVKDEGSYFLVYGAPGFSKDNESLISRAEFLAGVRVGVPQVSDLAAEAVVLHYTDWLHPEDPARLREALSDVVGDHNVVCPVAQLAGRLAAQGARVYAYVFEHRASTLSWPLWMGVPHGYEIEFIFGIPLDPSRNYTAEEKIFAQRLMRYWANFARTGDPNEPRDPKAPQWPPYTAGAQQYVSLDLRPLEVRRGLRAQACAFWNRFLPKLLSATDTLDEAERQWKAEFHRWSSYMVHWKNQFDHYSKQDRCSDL
T3 sequence (P12821 30-1306): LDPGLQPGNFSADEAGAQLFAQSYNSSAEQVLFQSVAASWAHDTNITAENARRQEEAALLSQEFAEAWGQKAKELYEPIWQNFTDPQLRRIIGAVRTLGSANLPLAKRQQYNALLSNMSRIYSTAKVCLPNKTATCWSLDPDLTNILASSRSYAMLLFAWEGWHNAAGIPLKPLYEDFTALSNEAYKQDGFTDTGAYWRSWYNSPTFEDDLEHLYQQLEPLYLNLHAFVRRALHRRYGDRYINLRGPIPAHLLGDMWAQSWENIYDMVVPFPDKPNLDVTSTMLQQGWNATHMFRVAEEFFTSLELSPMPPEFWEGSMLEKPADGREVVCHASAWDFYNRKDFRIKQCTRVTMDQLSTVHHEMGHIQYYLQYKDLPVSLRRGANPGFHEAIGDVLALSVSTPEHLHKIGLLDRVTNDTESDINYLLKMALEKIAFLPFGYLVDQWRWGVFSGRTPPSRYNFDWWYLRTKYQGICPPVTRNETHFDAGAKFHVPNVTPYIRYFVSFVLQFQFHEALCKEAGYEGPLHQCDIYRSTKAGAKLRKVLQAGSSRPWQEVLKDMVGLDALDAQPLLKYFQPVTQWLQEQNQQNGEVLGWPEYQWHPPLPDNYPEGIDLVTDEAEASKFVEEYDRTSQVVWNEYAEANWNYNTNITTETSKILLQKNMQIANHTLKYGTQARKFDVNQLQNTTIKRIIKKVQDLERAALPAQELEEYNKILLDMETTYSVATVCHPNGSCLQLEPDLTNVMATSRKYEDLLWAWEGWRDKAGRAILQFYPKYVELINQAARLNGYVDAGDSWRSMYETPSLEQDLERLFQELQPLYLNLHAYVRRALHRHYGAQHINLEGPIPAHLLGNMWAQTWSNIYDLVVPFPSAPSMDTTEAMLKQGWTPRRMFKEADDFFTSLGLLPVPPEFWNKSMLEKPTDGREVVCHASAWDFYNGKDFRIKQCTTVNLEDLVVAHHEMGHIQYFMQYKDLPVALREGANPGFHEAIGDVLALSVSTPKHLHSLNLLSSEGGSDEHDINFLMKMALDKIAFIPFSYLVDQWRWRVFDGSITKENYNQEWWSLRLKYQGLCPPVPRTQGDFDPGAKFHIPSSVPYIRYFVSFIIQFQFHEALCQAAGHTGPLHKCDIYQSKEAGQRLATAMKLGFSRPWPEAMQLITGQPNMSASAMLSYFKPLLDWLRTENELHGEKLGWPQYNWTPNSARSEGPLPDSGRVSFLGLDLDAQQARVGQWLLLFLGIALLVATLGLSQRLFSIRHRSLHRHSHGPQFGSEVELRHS
T8 sequence (Q08499 303-809 limits assumed): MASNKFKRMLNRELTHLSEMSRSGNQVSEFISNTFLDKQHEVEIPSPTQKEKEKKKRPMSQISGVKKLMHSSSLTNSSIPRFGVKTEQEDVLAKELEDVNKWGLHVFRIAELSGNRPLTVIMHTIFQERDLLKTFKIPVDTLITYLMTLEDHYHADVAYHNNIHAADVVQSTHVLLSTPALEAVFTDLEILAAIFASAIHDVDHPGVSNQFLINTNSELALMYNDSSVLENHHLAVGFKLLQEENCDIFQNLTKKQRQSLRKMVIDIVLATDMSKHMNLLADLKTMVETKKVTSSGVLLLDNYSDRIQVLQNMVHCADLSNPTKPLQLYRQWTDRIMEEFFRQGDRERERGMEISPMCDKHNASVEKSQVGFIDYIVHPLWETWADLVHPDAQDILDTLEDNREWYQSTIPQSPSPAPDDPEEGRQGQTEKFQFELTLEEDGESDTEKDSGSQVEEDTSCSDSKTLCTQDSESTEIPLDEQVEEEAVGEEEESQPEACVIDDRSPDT
T1 sequence (P00519 whole entry): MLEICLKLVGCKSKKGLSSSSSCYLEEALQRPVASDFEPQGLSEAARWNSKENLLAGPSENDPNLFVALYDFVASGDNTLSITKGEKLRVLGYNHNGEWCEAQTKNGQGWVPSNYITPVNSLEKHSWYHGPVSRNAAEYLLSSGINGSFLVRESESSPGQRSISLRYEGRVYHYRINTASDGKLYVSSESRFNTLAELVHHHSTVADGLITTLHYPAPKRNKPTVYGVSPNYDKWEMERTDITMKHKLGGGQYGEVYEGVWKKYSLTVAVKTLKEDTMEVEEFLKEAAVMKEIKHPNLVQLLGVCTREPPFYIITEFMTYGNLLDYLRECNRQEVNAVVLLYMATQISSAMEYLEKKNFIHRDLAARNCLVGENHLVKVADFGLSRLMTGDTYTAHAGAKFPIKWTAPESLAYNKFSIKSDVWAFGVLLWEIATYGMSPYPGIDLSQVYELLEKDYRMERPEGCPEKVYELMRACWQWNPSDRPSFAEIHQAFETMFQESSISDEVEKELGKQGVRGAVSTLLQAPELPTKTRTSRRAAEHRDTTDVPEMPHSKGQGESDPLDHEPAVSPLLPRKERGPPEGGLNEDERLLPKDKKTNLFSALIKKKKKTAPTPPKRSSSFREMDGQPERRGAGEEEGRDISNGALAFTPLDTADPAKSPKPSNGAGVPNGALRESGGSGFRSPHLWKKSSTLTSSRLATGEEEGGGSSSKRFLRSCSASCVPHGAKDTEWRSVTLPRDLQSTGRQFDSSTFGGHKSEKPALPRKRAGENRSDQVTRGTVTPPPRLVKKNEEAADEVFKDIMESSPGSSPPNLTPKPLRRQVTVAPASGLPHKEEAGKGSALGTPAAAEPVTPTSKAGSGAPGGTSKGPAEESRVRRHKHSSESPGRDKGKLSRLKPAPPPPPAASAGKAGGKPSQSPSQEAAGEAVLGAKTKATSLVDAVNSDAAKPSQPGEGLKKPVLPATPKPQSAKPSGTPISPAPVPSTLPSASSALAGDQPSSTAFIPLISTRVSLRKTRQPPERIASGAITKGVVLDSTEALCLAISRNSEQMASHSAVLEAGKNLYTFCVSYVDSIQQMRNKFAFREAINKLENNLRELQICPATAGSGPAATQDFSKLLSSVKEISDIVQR
T6 sequence (P14780 94-707): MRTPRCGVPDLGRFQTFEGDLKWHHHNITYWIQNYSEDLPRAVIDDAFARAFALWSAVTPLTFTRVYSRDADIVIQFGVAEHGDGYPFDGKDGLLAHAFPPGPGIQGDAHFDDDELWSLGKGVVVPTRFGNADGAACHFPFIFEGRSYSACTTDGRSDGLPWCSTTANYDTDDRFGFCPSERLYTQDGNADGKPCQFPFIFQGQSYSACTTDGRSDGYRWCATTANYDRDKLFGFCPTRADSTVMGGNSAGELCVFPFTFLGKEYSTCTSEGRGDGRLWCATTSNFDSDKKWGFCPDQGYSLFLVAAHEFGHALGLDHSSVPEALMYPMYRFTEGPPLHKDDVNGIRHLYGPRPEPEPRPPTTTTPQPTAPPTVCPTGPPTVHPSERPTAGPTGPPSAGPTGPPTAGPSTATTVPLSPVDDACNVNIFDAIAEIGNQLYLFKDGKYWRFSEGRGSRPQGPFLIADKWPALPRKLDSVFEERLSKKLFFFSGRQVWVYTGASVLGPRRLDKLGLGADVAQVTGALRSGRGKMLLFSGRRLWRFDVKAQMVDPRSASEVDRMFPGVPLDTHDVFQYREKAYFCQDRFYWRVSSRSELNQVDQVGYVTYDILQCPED

For CN1C(=O)[C@H](CCCCN)NC(=O)[C@H](CCCN)NCc2cccnc2Sc2cccc(-c3ccc(C(=O)O)cc3)c2CNC(=O)[C@@H]1Cc1c[nH]c2ccccc12 [zosurabalpin], the “RO7223280 MIC 100%” value (S. aureus ATCC 29213; Study LGC296813) was greater than 64 µg/mL, the “RO7223280 MIC 100%” value (S. aureus ATCC 29213; Study LGC299544) was greater than 64 µg/mL and the “RO7223280 MIC 100%” value (S. aureus ATCC 29213; Study LGC308175) was greater than 64 µg/mL. The MIC (S. aureus ATCC 29213; Staphylococcus aureus, ATCC29213) was greater than 64 µg/mL, the Off-target hits (panel of 50 off-targets) was 0 # and the Ames (Ames) was “Negative”. The “CYP inh. (2D6)” value (CYP2D6) was >50 (3A4) >50 (2C9) >50 (2D6) μM, the GSH adduct (GSH adduct) was “Clean” and the “Threshold concentration for precipitation” value [1] was 1.76 mg/mL. It also gave an inhibition at 10 µM (Abl kinase) of -18%, an inhibition at 10 µM (Acetylcholinesterase) of 13% and an inhibition at 10 µM [2] of -16%. The inhibition at 10 µM (CDK2) was 9%, the inhibition at 10 µM (Cyclooxygenase 2) was -7% and the percent inhibition (HIV-1 protease) was 16%. The inhibition at 10 µM (Matrix metalloprotease-9) was 10%, the inhibition at 10 µM (Monoamine oxidase-A) was 2% and the inhibition at 10 µM (Phosphodiesterase 4D2) was 12%. It also gave a percent inhibition [3] of -3% and an MIC (C. albicans ATCC 90028) greater than 64 µg/mL.
